Measured values as given in patent US7186738B2, “Antibacterial oxalidinones” (AstraZeneca AB, priority 2003, dated 2007).
In brackets after ≈: the same amount, converted by molar mass.

How the values were obtained:
[1] = tested on: Staphylococcus aureus MRQR (methicillin resistant and quinolone resistant); test: MIC by agar dilution, standard in-vitro test system; assay type: cell-based; details: inoculum 10^4 CFU/spot, 37° C., 24 hours
Method: (§1) The following results were obtained on a standard in-vitro test system. The activity is described in terms of the minimum inhibitory concentration (MIC) determined by the agar-dilution technique with an inoculum size of 10^4 CFU/spot. Typically, compounds are active in the range 0.01 to 256 μg/ml.
(§2) Staphylococci were tested on agar, using an inoculum of 10^4 CFU/spot and an incubation temperature of 37° C. for 24 hours—standard test conditions for the expression of methicillin resistance.

[2] = tested on: Staphylococcus aureus MSQS (methicillin sensitive and quinolone sensitive); test: as above; assay type: cell-based; details: inoculum 10^4 CFU/spot, 37° C., 24 hours
Method: as §1, §2

[3] = tested on: Moraxella catarrhalis; test: as above; assay type: cell-based; details: inoculum 10^4 CFU/spot
Method: as §1

[4] = tested on: Streptococcus pneumoniae; test: as above; assay type: cell-based; details: agar with 5% defibrinated horse blood, 10^4 CFU/spot, 37° C., 5% carbon dioxide, 48 hours
Method: as §1, with “μg/ml. Streptococci and enterococci were tested on agar supplemented with 5% defibrinated horse blood, an inoculum of 10^4 CFU/spot and an incubation temperature of 37° C. in an atmosphere of 5% carbon dioxide for 48 hours—blood is required for the growth of some of the test organisms.” for “μg/ml.”

[5] = tested on: Enterococcus faecium; test: as above; assay type: cell-based; details: agar with 5% defibrinated horse blood, 10^4 CFU/spot, 37° C., 5% carbon dioxide, 48 hours
Method: as §1, with “μg/ml. Streptococci and enterococci were tested on agar supplemented with 5% defibrinated horse blood, an inoculum of 10^4 CFU/spot and an incubation temperature of 37° C. in an atmosphere of 5% carbon dioxide for 48 hours—blood is required for the growth of some of the test organisms.” for “μg/ml.”

[6] = target: T1, MAO-A (Homo sapiens, UniProt P21397); test: MAO-A standard in-vitro assay, human liver enzyme expressed in yeast; assay type: biochemical; details: read-out: Ki value against MAO-A (converted)
T1 construct: made in house; host or cells: yeast
T1 sequence (P21397 1-527): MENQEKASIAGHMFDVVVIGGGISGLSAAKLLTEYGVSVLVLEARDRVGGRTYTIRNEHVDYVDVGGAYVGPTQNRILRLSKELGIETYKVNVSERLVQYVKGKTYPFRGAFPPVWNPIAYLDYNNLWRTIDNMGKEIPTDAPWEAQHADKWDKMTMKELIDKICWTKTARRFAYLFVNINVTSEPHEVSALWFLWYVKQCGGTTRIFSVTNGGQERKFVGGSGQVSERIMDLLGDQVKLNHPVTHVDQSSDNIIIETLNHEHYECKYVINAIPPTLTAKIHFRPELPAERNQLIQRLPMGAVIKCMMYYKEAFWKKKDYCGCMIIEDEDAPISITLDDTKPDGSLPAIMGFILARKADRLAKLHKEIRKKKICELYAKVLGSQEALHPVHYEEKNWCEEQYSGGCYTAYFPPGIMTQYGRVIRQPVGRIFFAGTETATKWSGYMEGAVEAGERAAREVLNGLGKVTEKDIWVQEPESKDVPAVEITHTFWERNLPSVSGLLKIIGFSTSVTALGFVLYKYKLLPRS
Method: The activity of the compounds of the invention against MAO-A was tested using a standard in-vitro assay based on human liver enzyme expressed in yeast as described in Biochem. Biophys. Res. Commun. 1991, 181, 1084–1088.

## Cc1cc(-c2ccc(N3C[C@H](Cn4ccnn4)OC3=O)cc2F)on1 [Example 1, (5R)-3-[3-Fluoro-4-(3-methylisoxazol-5-yl)phenyl]-5-(1H-1,2,3-triazol-1-ylmethyl)-1,3-oxazolidin-2-one]
[1]
  MIC: 1 µg/mL (≈ 2.91 µM)
[2]
  MIC: 0.5 µg/mL (≈ 1.46 µM)
[3]
  MIC: 1 µg/mL (≈ 2.91 µM)
[4]
  MIC: 0.25 µg/mL (≈ 0.728 µM)
[5]
  MIC: 0.5 µg/mL (≈ 1.46 µM)

## CCOC(=O)c1cc(-c2ccc(N3C[C@H](Cn4ccnn4)OC3=O)cc2F)on1 [Example 2, Ethyl 5-{2-fluoro-4-[(5R)-2-oxo-5-(1H-1,2,3-triazol-1-ylmethyl)-1,3-oxazolidin-3-yl]phenyl}isoxazole-3-carboxylate]
[6]
  Ki: 47.3 µM

## O=C1O[C@@H](Cn2ccnn2)CN1c1ccc(-c2c[nH]nn2)c(F)c1 [Example 7, (5R)-3-[3-Fluoro-4-(1H-1,2,3-triazol-4-yl)phenyl]-5-(1H-1,2,3-triazol-1-ylmethyl)-1,3-oxazolidin-2-one]
[6]
  Ki: 437 µM

## CCOC(=O)c1cc(-c2ccc(N3C[C@H](CNC(C)=O)OC3=O)cc2F)on1 [acetamide analogue of Example 2, reference compound]
[6]
  Ki: 15.3 µM

## CC(=O)NC[C@H]1CN(c2ccc(-c3c[nH]nn3)c(F)c2)C(=O)O1 [acetamide analogue of Example 7, reference compound]
[6]
  Ki: 106 µM
